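Five concentrations, 48 hours, 96-well plates. Here, GI50 denotes the concentration required for 50% inhibition of growth. TGI denotes the concentration required for complete inhibition of growth.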
Key:
Test in all cases: inhibition of tumour cell growth, NCI panel, 48 h
HCT-116 colon = system: HCT-116 colon
HL-60(TB) leukemia = system: HL-60(TB) leukemia
IGROV1 ovarian = system: IGROV1 ovarian
NCI-H522 lung = system: NCI-H522 lung
OVCAR-8 ovarian = system: OVCAR-8 ovarian
SNB-19 CNS = system: SNB-19 CNS
UACC-62 melanoma = system: UACC-62 melanoma
UO-31 renal = system: UO-31 renal
MDA-MB-231 breast = system: MDA-MB-231 breast
PC-3 prostate = system: PC-3 prostate

## CN1CCC(=O)/C(=C/c2ccccc2)C1
HCT-116 colon
  TGI: 3.25 µM
HL-60(TB) leukemia
  TGI: 41.5 µM
IGROV1 ovarian
  TGI: 33.5 µM
NCI-H522 lung
  TGI: 33.6 µM
OVCAR-8 ovarian
  TGI: 51.7 µM
SNB-19 CNS
  TGI: 30.8 µM
UACC-62 melanoma
  TGI: 36.9 µM
UO-31 renal
  TGI: 32.6 µM

## COC1C(OC(=S)Nc2ccccc2)c2ccccc2N1C(C)=O (stereo unspecified)
HCT-116 colon
  TGI: > 100 µM
HL-60(TB) leukemia
  TGI: > 100 µM
IGROV1 ovarian
  TGI: > 100 µM
OVCAR-8 ovarian
  TGI: > 100 µM
SNB-19 CNS
  TGI: > 100 µM
UACC-62 melanoma
  TGI: > 100 µM
UO-31 renal
  TGI: > 100 µM

## CN(C)C(=S)/N=c1\sn(C)/c(=N\C(=S)N(C)C)n1C
HCT-116 colon
  TGI: > 100 µM
HL-60(TB) leukemia
  TGI: > 100 µM
IGROV1 ovarian
  TGI: > 100 µM
NCI-H522 lung
  TGI: > 100 µM
OVCAR-8 ovarian
  TGI: > 100 µM
SNB-19 CNS
  TGI: > 100 µM
UACC-62 melanoma
  TGI: > 100 µM
UO-31 renal
  TGI: > 100 µM

## CN(C)CC[C@H](CSc1ccccc1)Nc1ccc(S(=O)(=O)NC(=O)c2ccc(N3CCN(Cc4ccccc4-c4ccc(Cl)cc4)CC3)cc2)cc1[N+](=O)[O-]
HCT-116 colon
  GI50: 2.93 µM
  TGI: > 27.3 µM
HL-60(TB) leukemia
  GI50: 0.35 µM
  TGI: 4.56 µM
IGROV1 ovarian
  GI50: 3.05 µM
  TGI: > 51.6 µM
MDA-MB-231 breast
  GI50: 1.55 µM
  TGI: 3.5 µM
OVCAR-8 ovarian
  GI50: 6.12 µM
  TGI: > 100 µM
PC-3 prostate
  GI50: 4.07 µM
  TGI: > 100 µM
SNB-19 CNS
  GI50: 4.68 µM
  TGI: > 100 µM
UACC-62 melanoma
  GI50: 3.51 µM
  TGI: 20 µM
UO-31 renal
  GI50: 3.53 µM
  TGI: 27.6 µM

## COc1cnc2c(c1)C(=O)c1c-2n(CCCNC2=NCCS2)c(=O)c2cc([N+](=O)[O-])ccc12
UO-31 renal
  GI50: < 0.01 µM
  TGI: 1.19 µM

## CC(C)(C)c1cc(C(P(=O)(O)O)P(=O)(O)O)cc(C(C)(C)C)c1O
HCT-116 colon
  TGI: > 100 µM
HL-60(TB) leukemia
  TGI: > 100 µM
IGROV1 ovarian
  TGI: > 100 µM
NCI-H522 lung
  TGI: > 100 µM
OVCAR-8 ovarian
  TGI: > 100 µM
SNB-19 CNS
  TGI: > 100 µM
UACC-62 melanoma
  TGI: > 100 µM
UO-31 renal
  TGI: > 100 µM

## CC12CCC(=O)C[C@H]1CCC(OC=O)C2Br (stereo partly specified)
HCT-116 colon
  TGI: > 100 µM
HL-60(TB) leukemia
  TGI: > 100 µM
IGROV1 ovarian
  TGI: > 100 µM
NCI-H522 lung
  TGI: > 100 µM
OVCAR-8 ovarian
  TGI: > 100 µM
SNB-19 CNS
  TGI: > 100 µM
UACC-62 melanoma
  TGI: > 100 µM
UO-31 renal
  TGI: > 100 µM

## O=C1CCC2(c3ccc(Cl)cc3)Nc3cc(Cl)ccc3N12 (stereo unspecified)
HCT-116 colon
  TGI: 19.5 µM
HL-60(TB) leukemia
  TGI: 12 µM
IGROV1 ovarian
  TGI: 28.7 µM
NCI-H522 lung
  TGI: 22.6 µM
OVCAR-8 ovarian
  TGI: 20.6 µM
SNB-19 CNS
  TGI: 42.6 µM
UACC-62 melanoma
  TGI: 21.2 µM
UO-31 renal
  TGI: 29.2 µM

## CC(C)C1=Cc2ccc3c(c2C(=O)C1=O)CCCC3(C)C
HCT-116 colon
  TGI: 3.33 µM
HL-60(TB) leukemia
  TGI: > 100 µM
IGROV1 ovarian
  TGI: 12.9 µM
NCI-H522 lung
  TGI: 3.39 µM
OVCAR-8 ovarian
  TGI: 10 µM
SNB-19 CNS
  TGI: 31.3 µM
UACC-62 melanoma
  TGI: 15.2 µM
UO-31 renal
  TGI: 13.2 µM

## CCOC(=O)c1nc2c(OC)nn(O)cc-2c1[N+](=O)[O-]
HCT-116 colon
  TGI: 38 µM
HL-60(TB) leukemia
  TGI: 46.4 µM
IGROV1 ovarian
  TGI: > 100 µM
NCI-H522 lung
  TGI: 36.9 µM
OVCAR-8 ovarian
  TGI: 36.4 µM
SNB-19 CNS
  TGI: 62.8 µM
UACC-62 melanoma
  TGI: 40.5 µM
UO-31 renal
  TGI: 42.4 µM

## O=C(Nc1cccc(C(F)(F)F)c1)c1ccc(NC2=C(Cl)C(=O)N(Cc3ccc(Cl)cc3Cl)C2=O)cc1
HCT-116 colon
  GI50: 5.99 µM
  TGI: 18.6 µM
HL-60(TB) leukemia
  GI50: 2.72 µM
  TGI: 12.4 µM
IGROV1 ovarian
  GI50: 2.01 µM
  TGI: 4.56 µM
MDA-MB-231 breast
  GI50: 12.5 µM
  TGI: 27.6 µM
NCI-H522 lung
  GI50: 3.34 µM
  TGI: 10.2 µM
OVCAR-8 ovarian
  GI50: 3.42 µM
  TGI: 19.7 µM
PC-3 prostate
  GI50: 4.64 µM
  TGI: 15.2 µM
SNB-19 CNS
  GI50: 22.8 µM
  TGI: > 100 µM
UACC-62 melanoma
  GI50: 13.7 µM
  TGI: 26.6 µM

## NC(N)=N/N=C/c1c(Cl)cccc1Cl
HCT-116 colon
  GI50: 17.2 µM
  TGI: 36.1 µM
HL-60(TB) leukemia
  GI50: 21.8 µM
  TGI: 50.9 µM
IGROV1 ovarian
  GI50: 31.2 µM
  TGI: > 100 µM
NCI-H522 lung
  GI50: 25.8 µM
  TGI: 77.2 µM
OVCAR-8 ovarian
  GI50: 30 µM
  TGI: > 100 µM
PC-3 prostate
  GI50: 31 µM
  TGI: > 100 µM
SNB-19 CNS
  GI50: 37.7 µM
  TGI: > 100 µM
UACC-62 melanoma
  GI50: 18 µM
  TGI: 37.3 µM
UO-31 renal
  GI50: 16.5 µM
  TGI: 64.7 µM

## COCC(OC)C(CC=C(C#N)C#N)OC (stereo unspecified)
HCT-116 colon
  TGI: > 100 µM
HL-60(TB) leukemia
  TGI: > 100 µM
IGROV1 ovarian
  TGI: > 100 µM
NCI-H522 lung
  TGI: > 100 µM
OVCAR-8 ovarian
  TGI: > 100 µM
SNB-19 CNS
  TGI: > 100 µM
UACC-62 melanoma
  TGI: > 100 µM
UO-31 renal
  TGI: > 100 µM

## C/C(CC(=O)Nc1ccc(C)c(C)c1)=N\N(c1ccccc1)c1ccccc1
HCT-116 colon
  TGI: > 100 µM
HL-60(TB) leukemia
  TGI: > 100 µM
IGROV1 ovarian
  TGI: > 100 µM
NCI-H522 lung
  TGI: 29.7 µM
OVCAR-8 ovarian
  TGI: > 100 µM
SNB-19 CNS
  TGI: > 100 µM
UACC-62 melanoma
  TGI: 57.4 µM
UO-31 renal
  TGI: > 100 µM

## Cc1cc2c(=O)c3ccccc3[nH]c2c(C(N)=O)c1C
HCT-116 colon
  TGI: > 100 µM
IGROV1 ovarian
  TGI: > 100 µM
NCI-H522 lung
  TGI: > 100 µM
OVCAR-8 ovarian
  TGI: > 100 µM
SNB-19 CNS
  TGI: > 100 µM
UACC-62 melanoma
  TGI: > 100 µM
UO-31 renal
  TGI: > 100 µM

## COc1ccc(OCC(=O)O)c2c1CCCC2=O
HCT-116 colon
  TGI: > 100 µM
HL-60(TB) leukemia
  TGI: > 100 µM
IGROV1 ovarian
  TGI: > 100 µM
NCI-H522 lung
  TGI: > 100 µM
OVCAR-8 ovarian
  TGI: > 100 µM
SNB-19 CNS
  TGI: > 100 µM
UACC-62 melanoma
  TGI: > 100 µM
UO-31 renal
  TGI: > 100 µM

## Cc1nc(Nc2cccnc2)sc1C(=O)/C=C/c1ccc(F)cc1
HCT-116 colon
  GI50: 1.64 µM
  TGI: 4.18 µM
IGROV1 ovarian
  GI50: 2.85 µM
  TGI: > 100 µM
MDA-MB-231 breast
  GI50: 4.03 µM
  TGI: > 100 µM
NCI-H522 lung
  GI50: 2.17 µM
  TGI: 5.11 µM
OVCAR-8 ovarian
  GI50: 3.92 µM
  TGI: > 100 µM
PC-3 prostate
  GI50: 4.07 µM
  TGI: 20.1 µM
SNB-19 CNS
  GI50: 3.34 µM
  TGI: 15.9 µM
UACC-62 melanoma
  GI50: 1.99 µM
  TGI: 4.99 µM
UO-31 renal
  GI50: 2.81 µM
  TGI: 16.9 µM

## C#CC1/C(=C\C(=O)OC)CCCC1O (stereo unspecified)
HCT-116 colon
  TGI: > 100 µM
HL-60(TB) leukemia
  TGI: > 100 µM
IGROV1 ovarian
  TGI: > 100 µM
NCI-H522 lung
  TGI: > 100 µM
OVCAR-8 ovarian
  TGI: > 100 µM
SNB-19 CNS
  TGI: > 100 µM
UACC-62 melanoma
  TGI: > 100 µM
UO-31 renal
  TGI: > 100 µM

## O=C(/C(=C/c1ccc(Cl)cc1)c1ccccc1)c1ccccc1
HCT-116 colon
  TGI: 27.1 µM
HL-60(TB) leukemia
  TGI: 66.5 µM
IGROV1 ovarian
  TGI: 49.1 µM
NCI-H522 lung
  TGI: 34.7 µM
OVCAR-8 ovarian
  TGI: 50.7 µM
UACC-62 melanoma
  TGI: 29.4 µM
UO-31 renal
  TGI: > 100 µM

## CN(C)CCC(/C=C/c1ccccc1)=N\Nc1ccccc1
HCT-116 colon
  TGI: 10.8 µM
HL-60(TB) leukemia
  TGI: 4.28 µM
IGROV1 ovarian
  TGI: 16.5 µM
NCI-H522 lung
  TGI: 8.98 µM
OVCAR-8 ovarian
  TGI: 23.9 µM
SNB-19 CNS
  TGI: 14.1 µM
UACC-62 melanoma
  TGI: 3.26 µM
UO-31 renal
  TGI: 2.8 µM

## CCOC(=O)c1ccc(/C(C)=N/NC(N)=S)cc1
HCT-116 colon
  TGI: > 100 µM
HL-60(TB) leukemia
  TGI: > 100 µM
IGROV1 ovarian
  TGI: > 100 µM
OVCAR-8 ovarian
  TGI: > 100 µM
SNB-19 CNS
  TGI: > 100 µM
UACC-62 melanoma
  TGI: > 100 µM

## CN1C(=O)c2ccccc2NC(=O)C12O[C@@H]2c1ccccc1 (stereo partly specified)
HCT-116 colon
  TGI: > 100 µM
HL-60(TB) leukemia
  TGI: > 100 µM
IGROV1 ovarian
  TGI: > 100 µM
MDA-MB-231 breast
  TGI: > 100 µM
NCI-H522 lung
  TGI: > 100 µM
OVCAR-8 ovarian
  TGI: > 100 µM
PC-3 prostate
  TGI: > 100 µM
UACC-62 melanoma
  TGI: > 100 µM
UO-31 renal
  TGI: > 100 µM
